Measured values reported in ChEMBL document CHEMBL5370614, “Antimalarial Lanostane Dimers from Artificially Cultivated Fruiting Bodies of Ganoderma weberianum” (J Nat Prod, 2023).

Assays:
[1] = system: Plasmodium falciparum; test: Antimalarial activity against multi-drug resistant Plasmodium falciparum K1 infected in human erythrocytes assessed as parasite growth inhibition incubated for 24 hrs by [G-3H]hypoxanthine uptake assay; type: functional, organism-based; conditions: K1, Erythrocyte
[2] = Cytotoxicity against African green monkey Vero cells assessed as cell growth inhibition by GFP fluorescence based assay; type: toxicity; conditions: African green monkey (Chlorocebus sabaeus)

Structure (SMILES)	IC50 [1]	IC50 [2]
C[C@H](CC[C@@H](O)[C@@](C)(O)CO)[C@H]1CC[C@@]2(C)C3=CC[C@H]4C(C)(C)C(=O)CC[C@]4(C)C3=CC[C@]12C	> 21 µM	> 106 µM
C[C@H](CC[C@@H](OC(=O)[C@@H](C)CC(=O)C[C@@H](C)[C@H]1C[C@@H](O)[C@@]2(C)C3=C(C(=O)C[C@]12C)[C@@]1(C)CC[C@@H](O)C(C)(C)[C@@H]1CC3=O)[C@@](C)(O)CO)[C@H]1CC[C@@]2(C)C3=C(CC[C@]12C)[C@@]1(C)CCC(=O)C(C)(C)[C@@H]1C[C@H]3O	0.67 µM	17 µM
C[C@H](CC(=O)C[C@@H](C)[C@H]1C[C@@H](O)[C@@]2(C)C3=C(C(=O)C[C@]12C)[C@@]1(C)CCC(=O)C(C)(C)[C@@H]1CC3=O)C(=O)O[C@H](CC[C@@H](C)[C@H]1CC[C@@]2(C)C3=CC[C@H]4C(C)(C)C(=O)CC[C@]4(C)C3=CC[C@]12C)[C@@](C)(O)CO	2.33 µM	9 µM
C.C[C@H](CC[C@@H](OC(=O)[C@@H](C)CC(=O)C[C@@H](C)[C@H]1C[C@@H](O)[C@@]2(C)C3=C(C(=O)C[C@]12C)[C@@]1(C)CC[C@@H](O)C(C)(C)[C@@H]1CC3=O)[C@@](C)(O)CO)[C@H]1CC[C@@]2(C)C3=CC[C@H]4C(C)(C)C(=O)CC[C@]4(C)C3=CC[C@]12C	1.3 µM	9.2 µM
C[C@H](CC(=O)C[C@H](C)C(=O)O)[C@H]1C[C@H](O)[C@@]2(C)C3=C(C(=O)C[C@]12C)[C@@]1(C)CCC(=O)C(C)(C)[C@@H]1C[C@H]3O	19 µM	> 97 µM
C[C@H](CC(=O)C[C@H](C)C(=O)O)[C@H]1C[C@H](O)[C@@]2(C)C3=C(C(=O)C[C@]12C)[C@@]1(C)CC[C@@H](O)C(C)(C)[C@@H]1CC3=O	> 19 µM	> 97 µM
C[C@H](CC(=O)C[C@H](C)C(=O)O[C@@H](CC[C@@H](C)[C@H]1C[C@H](O)[C@@]2(C)C3=C(CC[C@]12C)[C@@]1(C)CCC(=O)C(C)(C)[C@@H]1CC3)[C@](C)(O)CO)[C@H]1C[C@@H](O)[C@@]2(C)C3=C(C(=O)C[C@]12C)[C@@]1(C)CC[C@@H](O)C(C)(C)[C@@H]1CC3=O	0.23 µM	13 µM
C[C@H](CC[C@H](O)[C@](C)(O)COC(=O)[C@@H](C)CC(=O)C[C@@H](C)[C@H]1C[C@@H](O)[C@@]2(C)C3=C(C(=O)C[C@]12C)[C@@]1(C)CC[C@@H](O)C(C)(C)[C@@H]1CC3=O)[C@H]1CC[C@@]2(C)C3=CC[C@H]4C(C)(C)C(=O)CC[C@]4(C)C3=CC[C@]12C	3.3 µM	24 µM
C[C@H](CC(=O)C[C@H](C)C(=O)O)[C@H]1C[C@H](O)[C@@]2(C)C3=C(C(=O)C[C@]12C)[C@@]1(C)CC[C@@H](O)C(C)(C)[C@@H]1CC3	> 20 µM	> 100 µM
C[C@H](CC[C@@H](O)[C@@](C)(O)COC(=O)[C@@H](C)CC(=O)C[C@@H](C)[C@H]1C[C@@H](O)[C@@]2(C)C3=C(C(=O)C[C@]12C)[C@@]1(C)CCC(=O)C(C)(C)[C@@H]1CC3=O)[C@H]1CC[C@@]2(C)C3=CC[C@H]4C(C)(C)C(=O)CC[C@]4(C)C3=CC[C@]12C	1.09 µM	> 52 µM
C[C@H](CC(=O)C[C@H](C)C(=O)OC[C@@](C)(O)[C@@H](O)CC[C@@H](C)[C@H]1C[C@H](O)[C@@]2(C)C3=C(CC[C@]12C)[C@@]1(C)CCC(=O)C(C)(C)[C@@H]1CC3)[C@H]1C[C@@H](O)[C@@]2(C)C3=C(C(=O)C[C@]12C)[C@@]1(C)CCC(=O)C(C)(C)[C@@H]1CC3=O	0.035 µM	19 µM
C[C@H](CC[C@H](O)[C@](C)(O)COC(=O)[C@@H](C)CC(=O)C[C@@H](C)[C@H]1C[C@@H](O)[C@@]2(C)C3=C(C(=O)C[C@]12C)[C@@]1(C)CCC(=O)C(C)(C)[C@@H]1CC3=O)[C@H]1CC[C@@]2(C)C3=CC[C@H]4C(C)(C)C(=O)CC[C@]4(C)C3=CC[C@]12C	0.77 µM	> 52 µM
C[C@H](CC(=O)C[C@H](C)C(=O)O)[C@H]1C[C@H](O)[C@@]2(C)C3=C(C(=O)C[C@]12C)[C@@]1(C)CCC(=O)C(C)(C)[C@@H]1CC3=O	> 19 µM	> 97 µM
C[C@H](CC(=O)C[C@H](C)C(=O)O[C@@H](CC[C@@H](C)[C@H]1C[C@H](O)[C@@]2(C)C3=C(CC[C@]12C)[C@@]1(C)CCC(=O)C(C)(C)[C@@H]1CC3)[C@](C)(O)CO)[C@H]1C[C@@H](O)[C@@]2(C)C3=C(C(=O)C[C@]12C)[C@@]1(C)CCC(=O)C(C)(C)[C@@H]1CC3=O	0.057 µM	8.1 µM
C[C@H](CC(=O)C[C@H](C)C(=O)O)[C@H]1C[C@H](O)[C@@]2(C)C3=C(C(=O)C[C@]12C)[C@@]1(C)CCC(=O)C(C)(C)[C@@H]1CC3	> 20 µM	> 100 µM
C[C@H](CC[C@H](OC(=O)[C@@H](C)CC(=O)C[C@@H](C)[C@H]1C[C@@H](O)[C@@]2(C)C3=C(C(=O)C[C@]12C)[C@@]1(C)CC[C@@H](O)C(C)(C)[C@@H]1CC3=O)[C@](C)(O)CO)[C@H]1CC[C@@]2(C)C3=C(CC[C@]12C)[C@@]1(C)CCC(=O)C(C)(C)[C@@H]1C[C@H]3O	0.39 µM	2.3 µM
C[C@H]1[C@@H](O)O[C@@H]2O[C@@]3(C)CC[C@H]4[C@H](C)CC[C@@H]1[C@@]24OO3 [ARTENIMOL]	0.002 µM	–
Cc1c2ccncc2c(C)c2c1[nH]c1ccccc12 [ELLIPTECINE]	–	2.9 µM
C[C@H](CC[C@H](O)[C@](C)(O)CO)[C@H]1CC[C@@]2(C)C3=CC[C@H]4C(C)(C)C(=O)CC[C@]4(C)C3=CC[C@]12C [GANODERMANONTRIOL]	> 21 µM	> 106 µM
